Test results as given in patent US20080009448A1, “Peptide Derivative” (priority 2006, published 2008).
Like-named read-outs stand apart in the source and are kept apart here.

Key:
Type in all cases: in vivo, mouse
inflammatory pain model = assay: Rheumatoid arthritis / inflammatory pain model (CFA), Von Frey filament method; settings: for ED50: Mus musculus, po, read-out: ED50 of the anti-nociceptive activity calculated using the unit-time AUC value
Method: Experimental animal, male ddy type mice (Nihon SLC), weighing the body weight in the range of 15 to 20 g, were used for the studies. The animals had been kept under constant conditions (room temperature 23±1° C., humidity 52±2%, 12 hours light-and-dark cycle having light time 7:00 to 19:00 and dark time 19:00 to 7:00) until used for an experiment. The animals were fed the mouse solid diet (F2, Funabashi farm. Funabashi, Japan) with unrestricted tap water intake, and kept in captivity for at least more than two days in a laboratory.
A mouse was firmly fixed without anesthesia and 25 μL of Complete Freund's Adjuvant (CFA) using a number 30 guage needle (Termo) was subcutaneously administered into the dorsum of left hind foot to provide an inflammatory pain model. The model was kept under the conditions noted above until used for the test.
Measurement of anti-nociceptive activity on the inflammatory pain model was conducted according to Von Fray filament method as well as on never damaged model 5 days after CFA administration. The drugs were orally administered.
The anti-nociceptive activity is represented as a unit AUC value (AUC/min) which is the total AUC value or AUC divided by the measurement time and compared to study. ED50 of the anti-nociceptive activity was calculated by reducing the measurement value to a percentage of the upper limit which was set as 2.0 for the unit AUC.

[1] = tested on: nerve damage model animal; assay: Allodynia experiment, nerve damage model (partial sciatic nerve ligation), Von Frey filament method; settings: for anti-allodynia effect in animals with ligated sciatic nerve: s.c. administration, Von Frey filament
Method: Further the anti-nociceptive activity test using a nerve damage model envisioning a neuropathic pain was performed.
Preparation of the Nerve-Damage Model was Conducted According to the model created by Seltzer (partial sciatic nerve ligation: RSL model).
Specifically the amount of 0.1 mL/10 g of Nembutal solution 7 times diluted with Ringer's solution (Fuso Pharmaceutical Kogyo) was injected into the peritoneal cavity of mouse using 26 gauge needle (Termo) to give anesthetic. The animal was lain on its stomach, its femoral skin was cut open to incise through the fascia, the part between the heads of the biceps femoris was cut and then its sciatic nerve was fixed. The ⅓ to ½ part of the […] around the sciatic nerve detached without damaging was completely ligated with a nylon suture thread No. 9 (Natsume Seisakusho) using a vascular needle 000 spring hole (Natsume Seisakusho). Further the cut skin was sutured with the silk thread No. 2 (Natsume Seisakusho) using a surgical needle 1 spring needle (Natsume Seisakusho). After the operation, the mice had been kept until the testing date under the above conditions.
The measurement of allodynia effect on the nerve-damage model animals was conducted according to the Von Frey filament method 7 days after the nerve ligation.
Then a few kinds of filaments having different strength of stimulus (Touch-test Sensory Evaluator Instruction North Coast Medical Inc.) were pushed perpendicularly on the sole of the hinder leg until the filament was bent.
Further, for comparison, the left lower leg of the animal without nerve-damage was also stimulated and the threshold values were measured. AUCs (the area surrounded with the time-reaction curve and the base line of a graph showing the relationship between the time after administration (time-course) and % MPE) were calculated from the obtained results. Antiallodynia activity obtained from the AUC divided by the measuring time was compared as strength of activity per unit of the time period.

pressure stimulation = assay: Tail-pressure test; settings: either oral or subcutaneous administration (FIG. 67, 68)
Method: The maximum pressure was 100 mmHg. The mice used for the experiment reacted to the pressure range between 40 mmHg and 50 mmHg in pre-selective experiment. A few mice or a few dozen of mice under the same condition were stimulated by adding pressure and respective threshold values for the pain reaction were measured in constant intervals after administration in accordance with different drugs administered and the different dosage thereof. According to the measurement value of the pain reaction threshold value, a percent of maximum possible effect, (% of MPE) was calculated using the following formula to quantify the anti-nociceptive activity. % of MPE=[(Pt−P0)/(Pc−Po)]×100 (in the formula, Po is a pain reaction threshold value before drug administration; Pt is a pain reaction threshold value t minute after drug administration; and Pc is a maximum simulative pressure)
The mouse which reacted to 532 through 665 Pa (40-50 mmHg) was reselected for the test. In addition the maximal stimulating pressure was set as 1333 Pa (100 mmHg). Then % MPE at this point was calculated from formula (1) as well as noted above.

Compound | ED50 (inflammatory pain model; CFA administered foot) [mg/kg] | ED50 (inflammatory pain model; CFA non-administered foot) [mg/kg] | lasting time of anti-nociceptive activity (inflammatory pain model; mice, CFA model, oral) [min] | peak of anti-nociceptive activity after administration (inflammatory pain model; mice, CFA model, oral) [min] | anti-allodynia effect in animals with ligated sciatic nerve [1] | lasting period of anti-nociceptive activity compared with morphine ([1]; nerve damage model, s.c., at dose of equal activity) | dosage providing the same AUC, as part of morphine dosage (pressure stimulation)
CN1CC[C@]23c4c5ccc(O)c4O[C@H]2[C@@H](O)C=C[C@H]3[C@H]1C5 [Morphine] | 113 | 67.9 | 360 | 30 | significantly decreased | – | –
Iminoethyl-[Tyr]-[D-Met(O)]-[Phe]-[N-MeβAla]-NHCH3 [SS8225-07] | – | – | – | – | decrease of anti-allodynia effect was not observed at any doses | about twice longer | one hundredth through one twentieth
